Key:
postmenopausal women [1] = test: Randomized, double blind, placebo controlled study of oral lasofoxifene on joint pain (visual analog scale pain score); assay type: in vivo, human; conditions: 3 months assessment, self-reported VAS 100 mm scale (0 mm=no pain, 100 mm=worst pain)
Experimental: (§1) The Effects of Oral Administration of (−)-cis-6-phenyl-5-[4-(2-pyrrolidin-1-yl-ethoxy)-phenyl]-5,6,7,8-tetrahydro-naphthalene-2-ol, D-tartrate salt (Iasofoxifene) on Joint Pain: A Randomized, Double Blind, Placebo Controlled Study Subjects: A double blind, randomized, placebo controlled trial of approximately three hundred and seventy five women between the ages of 50 and 74 years of age inclusive, and 1-20 years postmenopausal was carried out. The subjects selected for the study were ambulatory females between the ages of 50 and 74 years of age (inclusive) who gave written informed consent for participation in the study. […] The subject's Screening/Baseline mean L1-L4 lumbar bone mineral density (BMD) of the spine must be less than +2.0 standard deviations and greater than −2.5 standard deviations of age-and sex-matched bone mineral density (Z-score) as determined by standards of the manufacturer of the Dual X-ray Absorptiometer (DXA) used in the determination of that BMD. […] The subjects' endometrial thickness were typically <5 mm as determined by transvaginal ultrasound (TVU) and subjects outside of this criteria were asked to undergo additional baseline evaluation following initial randomization. […]

postmenopausal women [2] = test: Randomized, double blind, placebo controlled study of oral lasofoxifene on sleep (Sleep Problems subscale of Women's Health Questionnaire); assay type: in vivo, human; conditions: 3 months assessment
Experimental: The Effects of Oral Administration of (−)-cis-6-phenyl-5-[4-(2-pyrrolidin-1-yl-ethoxy)-phenyl]-5,6,7,8-tetrahydro-naphthalene-2-ol, D-tartrate salt (lasofoxifene) on Sleep: A Randomized, Double Blind, Placebo Controlled Study
as §1, with “Subjects:” for “The Effects of Oral Administration of (−)-cis-6-phenyl-5-[4-(2-pyrrolidin-1-yl-ethoxy)-phenyl]-5,6,7,8-tetrahydro-naphthalene-2-ol, D-tartrate salt (Iasofoxifene) on Joint Pain: A Randomized, Double Blind, Placebo Controlled Study Subjects:”
Assessment Method: Patient self-report recorded on Sleep Problems subscale of standardized questionnaire, Women's Health Questionnaire (WHQ; Hunter, M. 1992. Psychology and Health, 7: 45-54).

O=C(O)C(O)C(O)C(=O)O.Oc1ccc2c(c1)CC[C@H](c1ccccc1)[C@@H]2c1ccc(OCCN2CCCC2)cc1 [Lasofoxifene, (−)-cis-6-phenyl-5-[4-(2-pyrrolidin-1-yl-ethoxy)-phenyl]-5,6,7,8-tetrahydro-naphthalene-2-ol, D-tartrate salt]
Joint Pain Changes Resulting From Treatment (Mean Change from Baseline) (postmenopausal women [1]; lasofoxifene 0.25 mg/day oral): −8.16
Joint Pain Changes Resulting From Treatment (Mean Change from Baseline) (postmenopausal women [1]; lasofoxifene 1.0 mg/day oral): 4.52
Improvement in sleep (less sleep disturbance) vs. placebo, in words (postmenopausal women [2]; lasofoxifene 0.4 mg treatment group vs. placebo): statistically significant improvement in sleep
Mean Change from Baseline (WHQ Sleep Problems subscale) (postmenopausal women [2]; lasofoxifene 0.4 mg/day oral, patient self-report): −0.09

— patent US20040152713A1, “Methods for treating joint pain or improving sleep using an estrogen agonist/antagonist” (Pfizer Inc., priority 2003, published 2004)
